“Also recorded” adds a separate entry of the source.
Legend:
Aβ in N2a/AβPPswe cells = experiment: Sandwich ELISA of Aβ in N2a/AβPPswe cells treated with THC and CB1 inhibitor rimonabant; assay type: cell-based, human; conditions: 25 nM THC with no rimonabant; 36 hour and later time points; FIG. 2
Protocol: The mechanism of action was elucidated for THC's effect on Aβ levels using a sandwich ELISA assay. N2a/AβPPswe cells, as discussed in Example 1, were suspended to 2×10^5/mL, 3 mL plated into each well, and grown in DMEM with 10% fetal bovine serum, 100 U/mL penicillin, 100 μg/mL streptomycin, and 400 μg/mL G418 (Invitrogen), at 37° C. in the presence of 5% CO2. N2a/AβPPswe cells were subcultured using trypsin, and pipetted numerous times to ensure cells were separated into individual cells. Cells were counted, as provided in Example 1, and proper amount of cell medium and fresh medium was added into new flasks according to the ratio of dilution. Pipetting was performed 10 times to homogenize cells, and 3 mL of cells were seeded into medium into each 6 well plate. When one pipette was used up, the cells were mixed in the flask before using them for the next pipette. Compounds were suspended in DMSO.
12 hours after cells were plated, cells were treated with 25 nM of Δ9-THC (T4764-1ML Sigma Aldrich, Merck KGaA; Darmstadt, Germany), with the known inhibitor of the CB1 receptor, rimonabant, at 0 μM, 100 μM, 10 μM, 1 μM, or 0.1 μM rimonabant. Untreated N2a/AβPPswe cells were used as a control. Treatment was then washed out, i.e. the medium was then removed from the cultures and 3 mL of media containing the treatment compounds were added. Cells were collected at 12 hours afterwards, 48 hours afterwards, 60 hours afterwards, and 72 hours afterwards, and ELISA was conducted on the cells.
ELISA assay was performed on the cells using 50 μL of goat anti-PWT1-42 antibody solution, which was incubated overnight, followed by a 1-hour incubation with 0.1% I-block buffer. The tissue culture supernatant was diluted 1:10 with diluent buffer containing a protease inhibitor. Standards were prepared by serial dilution, as provided in Example 1. The plate was washed and 50 μL of sample or standard was added with triplication. 50 μL of both Biosource 40/42 (HS) (primary antibody) Aβ and a standard solution was added to each well and incubated for 3 hours followed by 5× wash with PBST. […]

[1] = system: isolated mitochondria from N2a/AβPPswe cells; experiment: Respiratory function of isolated mitochondria (Clark type oxygen electrode); assay type: cell-based
Protocol: FIG. 14A is a graph showing basal mitochondrial function after treatment with THC and a combination of THC and melatonin. N2a/AβPPswe cells were cultured in 10 cm tissue culture plate and then treated with drugs for 36 hours and mitochondria were harvested and tested for their ability of using oxygen utilization. Samples were loaded as follows; Ctrl, Control, or 10^−5 M Melatonin with 2.5 nM THC, 10^−6 M Melatonin with 2.5 nM THC, 2.5 nM THC, 10^−5 M Melatonin, or 10^−6 M Melatonin+2.5 nM THC.
FIG. 14B is a graph showing mitochondrial function in the presence of FCCP after treatment with THC alone as well as with a combination of THC and melatonin. N2a/AβPPswe cells were cultured in 10 cm tissue culture plate and then treated with drugs for 36 hours and mitochondria were harvested and tested for their ability of using oxygen utilization. Samples were loaded as follows; Ctrl, Control, or 10^−5 M Melatonin with 2.5 nM THC, 10^−6 M Melatonin with 2.5 nM THC, 2.5 nM THC, 10^−5 M Melatonin, or 10^−6 M Melatonin+2.5 nM THC.

CB1 receptor = experiment: RT-PCR for CB1 receptor expression level; conditions: cells treated with low doses of THC
GSK-3β = experiment: Western blot of GSK-3β in N2a/AβPPswe cells; assay type: cell-based
Protocol: Next, the effects of THC on amyloid protein processing were analyzed by testing total GSK-30 and phosphorylated GSK-3β (pGSK-3β) levels. β-actin, a housekeeping gene, was used as a control to indicate that GSK-3β was expressed at a constant rate and that the changes in intensity were not related to the change in expression amount.
The cellular effects of THC were next analyzed. As Aβ processing is mediated by GSK-3β, protein levels were tested. N2a/AβPPswe cells were treated with 2.5 nM or 0.25 nM of THC, as provided in Example 1, and N2a/AβPPswe cell lysate were collected, quantified, and aliquoted.
N2a/AβPPswe cells were cultured as provided above and Δ9-THC added at 0.25 nM and 2.5 nM, as provided in Example 1. After THC treatment for 48 hours, N2a/AβPPswe cell lysate were collected, quantified, and aliquoted. Using 12% Tris-Glycine gel system (Bio-Rad Laboratories, Inc., Hercules, Calif.), protein were separated by electrophoresis and semi-dry transferred to a polyvinylidene difluoride (PVDF) membrane. GSK-3β (Cat #9315, Cell Signaling Technology, Inc. Danvers, Mass.) and β-actin (Cat #A54441, Sigma Aldrich, Merck KGaA; Darmstadt, Germany) antibodies were used as primary antibody. After adding secondary antibody (Goat-anti-Rabbit-HRP Cat #4050-05, Southern Biotech, part of Thermo Fisher Scientific, Waltham, Mass.; Anti-mouse IgG-HRP Cat #A9044, Sigma Aldrich, Merck KGaA; Darmstadt, Germany), the membranes were exposed using ECL substrate (Pierce). After membrane was developed, film with bands were scanned, followed by analysis of gel-quantification software (QuantityOne, from Bio-rad).
The effects of combining THC with other compounds was analyzed using a combination of THC and melatonin. Cells were treated with 2.5 nM of THC and 10 μM or 1 μM melatonin, using the methods discussed above, and N2a/AβPPswe cell lysate collected, quantified, and aliquoted. […] After membrane was developed, film with bands were scanned, followed by analysis of gel-quantification software (QuantityOne, from Biorad).

How did the Aβ levels (Aβ in N2a/AβPPswe cells) turn out when `CCCCCc1cc(O)c2c(c1)OC(C)(C)[C@@H]1CCC(C)=C[C@@H]21` [THC, Δ9-tetrahydrocannabinol] was run?
Its Aβ levels is “significantly lower Aβ; also recorded: marked decreases”.

And the “Respiration / oxygen utilization of isolated mitochondria” value ([1]; 2.5 nM THC alone or with 10 μM or 1 μM melatonin, early and late stages of respiration)?
Its value is “higher oxygen utilization”.

What about the “Basal mitochondrial function (oxygen utilization)” value ([1]; 36 hours treatment, FIG. 14A) of the same compound?
The value was “enhance mitochondrial function”.

What about the “Mitochondrial function in the presence of FCCP” value ([1]; 36 hours treatment, FIG. 14B) of the same compound?
The value was “enhance mitochondrial function”.

And the “CB1 receptor expression level (RT-PCR)” value (CB1 receptor)?
Its value is “no significant upregulation”.

What about the “GSK-3β protein levels (ratio to β-actin)” value (GSK-3β; THC 0.25 nM and 2.5 nM, 48 hours, FIGS. 5A, 5B) of the same compound?
Its value is “dose-dependent decrease; also recorded: decreases the GSK-3β protein levels”.

And the “GSK-3 levels relative to the control” value (GSK-3β; lowest level of THC from the tests)?
The value was “about half”.

What about the “Decrease of GSK-3β protein levels over the untreated control” value (GSK-3β; ultra-low doses of THC, FIGS. 5A, 5B) of the same compound?
Its value is no more than 50%.

Source: US11446276B2, “Extreme low dose THC as a therapeutic and prophylactic agent for Alzheimer's disease” (University of South Florida, priority 2015, dated 2022)
